Here are results for two compounds from ChEMBL document CHEMBL1146371, “HSP90-like artificial chaperone activity based on indole beta-cyclodextrin” (Bioorg Med Chem, 2007).

This experiment in a line: Artificial […]-like chaperone activity assessed as prevention of citrate synthase thermal aggregation. It is filed as functional.

The source made the active and inactive calls. The calls are words filed in the database; no cut-off is given here.

`OC[C@H]1O[C@@H]2O[C@H]3[C@H](O)[C@@H](O)[C@@H](O[C@H]4[C@H](O)[C@@H](O)[C@@H](O[C@H]5[C@H](O)[C@@H](O)[C@@H](O[C@H]6[C@H](O)[C@@H](O)[C@@H](O[C@H]7[C@H](O)[C@@H](O)[C@@H](O[C@H]1[C@H](O)[C@H]2O)O[C@@H]7CO)O[C@@H]6CO)O[C@@H]5CO)O[C@@H]4CO)O[C@@H]3CO`: the outcome was inactive.

`OC[C@H]1O[C@@H]2O[C@H]3[C@H](O)[C@@H](O)[C@@H](O[C@H]4[C@H](O)[C@@H](O)[C@@H](O[C@H]5[C@H](O)[C@@H](O)[C@@H](O[C@H]6[C@H](O)[C@@H](O)[C@@H](O[C@H]7[C@H](O)[C@@H](O)[C@@H](O[C@H]8[C@H](O)[C@@H](O)[C@@H](O[C@H]1[C@H](O)[C@H]2O)O[C@@H]8CO)O[C@@H]7CO)O[C@@H]6CO)O[C@@H]5CO)O[C@@H]4CO)O[C@@H]3CO`: the outcome was Active.
